In patent US20160175293A1, “PIM KINASE INHIBITOR COMBINATIONS” (priority 2013, published 2016):

Assays:
[1] = tested on: KMS-12-BM; test: mouse xenograft model KMS-12-BM; format: in vivo; settings: single agent Compound B
[2] = tested on: MOLM-13; test: Cell Titer Glo viability, dose matrix, Chalice analysis; format: cell-based
Method: (§1) Compound stock was freshly prepared in the appropriate culture medium and manually added to the plates by electronic multichannel pipette in three replicates. […] The viability of cells was assessed after 72 hours of treatment by quantification of cellular ATP levels via Cell Titer Glo (Promega #G7571) according to the manufacturer's protocol. Plates were read on a luminescence plate reader (Victor X4, Perkin Elmer).
(§2) Each compound is diluted threefold times and the dashes below represent the threefold dilution between each number.

[3] = tested on: MV-4-11; test: as above; format: cell-based
Method: as §1, §2

With `C[C@@H]1C[C@H](N)C[C@H](c2ccncc2NC(=O)c2ccc(F)c(-c3c(F)cccc3F)n2)C1` [Compound A, N-(4-((1R,3S,5S)-3-amino-5-methylcyclohexyl)pyridin-3-yl)-6-(2,6-difluorophenyl)-5-fluoropicolinamide] as the compound, how does the “PK exposure at steady state” value (Day 14 (steady state), 200 mg to 350 mg dose) read?
Its value is “plateau”.

And the “PK exposure (Cmax AUC) dose proportionality” value (dose range of 70 mg-250 mg, Day 1)?
Its value is “over proportional”.

What about the “increase of exposure at 500 mg compared to 200 mg to 350 mg dose” value (steady state) of the same compound?
Its value is “about 2 fold”.

For `Cc1nc(NC(=O)N2CCC[C@H]2C(N)=O)sc1-c1ccnc(C(C)(C)C(F)(F)F)c1` [Compound B, (S)-pyrrolidine-1,2-dicarboxylic acid 2-amide 1-({4-methyl-5-[2-(2,2,2-trifluoro-1,1-dimethyl-ethyl)-pyridin-4-yl]-thiazol-2-yl}-amide)], which anti-tumor activity [1] is on record?
Its anti-tumor activity is “did not demonstrate in anti-tumor activity”.

For `CO[C@@H]1[C@H](N(C)C(=O)c2ccccc2)C[C@H]2O[C@]1(C)n1c3ccccc3c3c4c(c5c6ccccc6n2c5c31)C(=O)NC4` [PKC412, midostaurin], which single agent activity [2] is on record?
Its single agent activity is “active”.

What about the single agent activity [3] of the same compound?
Its single agent activity is “active”.
